The supplement of paper PMC10307832

How the values were obtained:
Assay in all cases: relative viability (nuclei count vs DMSO), 5 days (fraction); higher = more cells survive
[1] = compound: C1CC2=C(C1)C=C(C=C2)OC3=NC(=C4C(=N3)N(C=N4)CC5=CC=C(C=C5)C6=CC=CC=C6)N[C@@H](CC7=CC=CC=C7)CO [QS11] + COc1cc2c(Oc3ccc(NC(=O)C4(C(=O)Nc5ccc(F)cc5)CC4)cc3F)ccnc2cc1OCCCN1CCOCC1 [Foretinib] (partner 0.25 µM)
Outline: (§1)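 Medians of duplicate plates are given as relative viability. That measure is the nuclei count in treated wells divided by the count in vehicle wells. Counts were taken on 4× images of lung cancer cell lines in 1536-well plates, 5 days after pin-tool dosing the day after seeding with one drug alone or a fixed anchor-drug dose plus five library-drug doses (not always all listed) in √10 steps.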

[2] = compound: CC1=C(C=C(C=C1)NC(=O)C2=CC(=CC=C2)C(C)(C)C#N)NC3=CC4=C(C=C3)N=CN(C4=O)C [AZ628] + CS(=O)(=O)N1CCN(Cc2cc3nc(-c4cccc5[nH]ncc45)nc(N4CCOCC4)c3s2)CC1 [Pictilisib] (partner 1 µM)
Outline: as §1

[3] = compound: C1CC2=C(C1)C=C(C=C2)OC3=NC(=C4C(=N3)N(C=N4)CC5=CC=C(C=C5)C6=CC=CC=C6)N[C@@H](CC7=CC=CC=C7)CO [QS11] + CC1(C)CCC(c2ccc(Cl)cc2)=C(CN2CCN(c3ccc(C(=O)NS(=O)(=O)c4ccc(N[C@H](CCN5CCOCC5)CSc5ccccc5)c(S(=O)(=O)C(F)(F)F)c4)cc3)CC2)C1 [Navitoclax] (partner 0.5 µM)
Outline: as §1

[4] = compound: C1CC2=C(C1)C=C(C=C2)OC3=NC(=C4C(=N3)N(C=N4)CC5=CC=C(C=C5)C6=CC=CC=C6)N[C@@H](CC7=CC=CC=C7)CO [QS11] + Cc1nc(Nc2ncc(C(=O)Nc3c(C)cccc3Cl)s2)cc(N2CCN(CCO)CC2)n1 [Dasatinib] (partner 0.075 µM)
Outline: as §1

Cell Line: LCLC-97TM1
- relative viability ([1]; first compound 0.08 µM): 0.957
- relative viability ([1]; first compound 0.253 µM): 0.949
- relative viability ([1]; first compound 2.53 µM): 0.934
- relative viability ([1]; first compound 8 µM): 0.931
- relative viability ([2]; first compound 0.08 µM): 0.201
- relative viability ([2]; first compound 0.253 µM): 0.183
- relative viability ([2]; first compound 0.8 µM): 0.203
- relative viability ([2]; first compound 2.53 µM): 0.141
- relative viability ([2]; first compound 8 µM): 0.12
- relative viability ([3]; first compound 0.08 µM): 0.414
- relative viability ([3]; first compound 0.253 µM): 0.328
- relative viability ([3]; first compound 0.8 µM): 0.387
- relative viability ([3]; first compound 2.53 µM): 0.503
- relative viability ([3]; first compound 8 µM): 0.432
- relative viability ([4]; first compound 0.08 µM): 0.777
- relative viability ([4]; first compound 0.253 µM): 0.932
- relative viability ([4]; first compound 2.53 µM): 0.868
- relative viability ([4]; first compound 8 µM): 1.01
